SMILES strings stand for the structures. pIC50: −log10 of the molar value.

Here are results for 38 compounds from ChEMBL document CHEMBL3864167, “Structure-Activity Relationship, Drug Metabolism and Pharmacokinetics Properties Optimization, and in Vivo Studies of New Brain Penetrant Triple T-Type Calcium Channel Blockers” (J Med Chem, 2016).

Series [1] is described as follows: Intrinsic clearance in human liver microsomes at 1 uM up to 15 mins in presence of NADPH by LC-MS-MS analysis. Format: ADME. The conditions noted are these: read-out: CLH. Background: Liver microsomes are vesicles of endoplasmic reticulum, rich in cytochrome P450 enzymes.
Series [2] has as its target Voltage-dependent T-type calcium channel subunit alpha-1G (Homo sapiens, UniProt O43497). Kind of series: Channel blocking activity at recombinant human CaV 3.1 channel expressed in HEK293 cells assessed as inhibition of Ca2+ flux preincubated for 3 mins followed by CaCl2 addition by fluo-4 dye-based FLIPR assay. The class given is cell-based. For orientation: Calcium assays in cells follow changes in intracellular calcium, usually with a dye or a luminescent sensor.

In series [3] the target is Voltage-dependent T-type calcium channel subunit alpha-1I (Homo sapiens, UniProt Q9P0X4). As to the kind of experiment: Channel blocking activity at recombinant human CaV 3.3 channel expressed in HEK293 cells assessed as inhibition of Ca2+ flux preincubated for 3 mins followed by CaCl2 addition by fluo-4 dye-based FLIPR assay. The class given is cell-based.
Series [4] has as its target Voltage-dependent T-type calcium channel subunit alpha-1H (Homo sapiens, UniProt O95180). Kind of series: Channel blocking activity at recombinant human CaV 3.2 channel expressed in HEK293 cells assessed as inhibition of Ca2+ flux preincubated for 3 mins followed by CaCl2 addition by fluo-4 dye-based FLIPR assay. Format: cell-based.

Voltage-dependent T-type calcium channel subunit alpha-1H, sequence (O95180 whole entry): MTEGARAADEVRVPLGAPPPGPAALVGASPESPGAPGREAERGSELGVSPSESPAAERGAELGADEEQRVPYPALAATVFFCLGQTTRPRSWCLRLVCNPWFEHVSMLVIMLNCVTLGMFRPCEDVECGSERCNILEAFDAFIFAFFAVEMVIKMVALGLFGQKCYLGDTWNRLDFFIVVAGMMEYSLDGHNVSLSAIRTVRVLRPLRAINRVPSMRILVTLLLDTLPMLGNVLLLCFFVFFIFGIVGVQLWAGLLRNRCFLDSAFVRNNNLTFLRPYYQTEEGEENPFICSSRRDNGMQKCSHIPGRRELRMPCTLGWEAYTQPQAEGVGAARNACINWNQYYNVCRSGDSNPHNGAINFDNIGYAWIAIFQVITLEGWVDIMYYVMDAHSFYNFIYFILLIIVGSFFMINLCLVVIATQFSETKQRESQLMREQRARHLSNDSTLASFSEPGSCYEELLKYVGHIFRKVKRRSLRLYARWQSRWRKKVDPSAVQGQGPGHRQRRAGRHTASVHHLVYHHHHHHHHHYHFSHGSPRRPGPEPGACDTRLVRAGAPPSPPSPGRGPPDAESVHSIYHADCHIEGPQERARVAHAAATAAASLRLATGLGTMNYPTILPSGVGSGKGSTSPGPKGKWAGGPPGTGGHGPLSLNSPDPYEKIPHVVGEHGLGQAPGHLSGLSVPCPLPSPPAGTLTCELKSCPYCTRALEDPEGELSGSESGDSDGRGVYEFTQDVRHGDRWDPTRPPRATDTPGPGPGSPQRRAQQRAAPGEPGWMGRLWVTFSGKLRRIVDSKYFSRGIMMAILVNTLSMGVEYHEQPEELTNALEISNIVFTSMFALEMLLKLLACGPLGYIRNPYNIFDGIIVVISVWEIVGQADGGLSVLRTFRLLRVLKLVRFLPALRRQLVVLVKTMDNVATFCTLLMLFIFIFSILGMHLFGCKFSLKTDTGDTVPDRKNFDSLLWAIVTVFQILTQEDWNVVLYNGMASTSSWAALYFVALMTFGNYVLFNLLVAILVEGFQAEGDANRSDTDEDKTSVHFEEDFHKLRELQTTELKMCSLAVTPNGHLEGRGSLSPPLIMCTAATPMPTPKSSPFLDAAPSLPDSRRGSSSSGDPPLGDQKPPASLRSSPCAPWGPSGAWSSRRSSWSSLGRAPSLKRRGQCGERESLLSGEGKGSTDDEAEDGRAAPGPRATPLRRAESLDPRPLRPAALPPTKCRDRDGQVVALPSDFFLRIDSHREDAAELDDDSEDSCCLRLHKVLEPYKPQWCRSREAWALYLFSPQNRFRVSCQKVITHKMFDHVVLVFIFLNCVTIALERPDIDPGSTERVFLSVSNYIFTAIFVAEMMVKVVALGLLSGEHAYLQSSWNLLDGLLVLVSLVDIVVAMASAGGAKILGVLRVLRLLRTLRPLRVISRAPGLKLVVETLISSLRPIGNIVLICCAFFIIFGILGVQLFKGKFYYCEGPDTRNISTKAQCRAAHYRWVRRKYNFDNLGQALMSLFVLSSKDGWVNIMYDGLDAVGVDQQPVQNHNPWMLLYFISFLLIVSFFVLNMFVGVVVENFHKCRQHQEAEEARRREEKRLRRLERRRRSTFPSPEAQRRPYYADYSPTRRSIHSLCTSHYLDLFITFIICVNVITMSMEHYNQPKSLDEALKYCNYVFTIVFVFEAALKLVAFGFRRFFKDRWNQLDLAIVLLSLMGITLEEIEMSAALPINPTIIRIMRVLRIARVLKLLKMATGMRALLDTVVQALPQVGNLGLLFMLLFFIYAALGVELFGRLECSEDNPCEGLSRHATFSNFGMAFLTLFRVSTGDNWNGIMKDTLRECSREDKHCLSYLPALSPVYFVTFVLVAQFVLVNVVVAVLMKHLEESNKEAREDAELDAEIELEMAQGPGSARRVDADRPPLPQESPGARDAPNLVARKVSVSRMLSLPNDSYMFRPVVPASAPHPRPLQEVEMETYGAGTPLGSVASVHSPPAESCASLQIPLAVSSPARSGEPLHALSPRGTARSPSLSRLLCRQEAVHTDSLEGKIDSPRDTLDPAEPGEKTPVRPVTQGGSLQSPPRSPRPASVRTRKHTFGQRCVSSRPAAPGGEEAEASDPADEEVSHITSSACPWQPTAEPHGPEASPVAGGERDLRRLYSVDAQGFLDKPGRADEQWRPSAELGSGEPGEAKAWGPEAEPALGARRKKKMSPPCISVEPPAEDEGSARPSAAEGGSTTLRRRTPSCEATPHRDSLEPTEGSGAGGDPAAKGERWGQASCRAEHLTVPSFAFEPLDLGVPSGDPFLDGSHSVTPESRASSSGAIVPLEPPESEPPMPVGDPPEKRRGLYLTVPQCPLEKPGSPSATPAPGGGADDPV
Voltage-dependent T-type calcium channel subunit alpha-1G, sequence (O43497 whole entry): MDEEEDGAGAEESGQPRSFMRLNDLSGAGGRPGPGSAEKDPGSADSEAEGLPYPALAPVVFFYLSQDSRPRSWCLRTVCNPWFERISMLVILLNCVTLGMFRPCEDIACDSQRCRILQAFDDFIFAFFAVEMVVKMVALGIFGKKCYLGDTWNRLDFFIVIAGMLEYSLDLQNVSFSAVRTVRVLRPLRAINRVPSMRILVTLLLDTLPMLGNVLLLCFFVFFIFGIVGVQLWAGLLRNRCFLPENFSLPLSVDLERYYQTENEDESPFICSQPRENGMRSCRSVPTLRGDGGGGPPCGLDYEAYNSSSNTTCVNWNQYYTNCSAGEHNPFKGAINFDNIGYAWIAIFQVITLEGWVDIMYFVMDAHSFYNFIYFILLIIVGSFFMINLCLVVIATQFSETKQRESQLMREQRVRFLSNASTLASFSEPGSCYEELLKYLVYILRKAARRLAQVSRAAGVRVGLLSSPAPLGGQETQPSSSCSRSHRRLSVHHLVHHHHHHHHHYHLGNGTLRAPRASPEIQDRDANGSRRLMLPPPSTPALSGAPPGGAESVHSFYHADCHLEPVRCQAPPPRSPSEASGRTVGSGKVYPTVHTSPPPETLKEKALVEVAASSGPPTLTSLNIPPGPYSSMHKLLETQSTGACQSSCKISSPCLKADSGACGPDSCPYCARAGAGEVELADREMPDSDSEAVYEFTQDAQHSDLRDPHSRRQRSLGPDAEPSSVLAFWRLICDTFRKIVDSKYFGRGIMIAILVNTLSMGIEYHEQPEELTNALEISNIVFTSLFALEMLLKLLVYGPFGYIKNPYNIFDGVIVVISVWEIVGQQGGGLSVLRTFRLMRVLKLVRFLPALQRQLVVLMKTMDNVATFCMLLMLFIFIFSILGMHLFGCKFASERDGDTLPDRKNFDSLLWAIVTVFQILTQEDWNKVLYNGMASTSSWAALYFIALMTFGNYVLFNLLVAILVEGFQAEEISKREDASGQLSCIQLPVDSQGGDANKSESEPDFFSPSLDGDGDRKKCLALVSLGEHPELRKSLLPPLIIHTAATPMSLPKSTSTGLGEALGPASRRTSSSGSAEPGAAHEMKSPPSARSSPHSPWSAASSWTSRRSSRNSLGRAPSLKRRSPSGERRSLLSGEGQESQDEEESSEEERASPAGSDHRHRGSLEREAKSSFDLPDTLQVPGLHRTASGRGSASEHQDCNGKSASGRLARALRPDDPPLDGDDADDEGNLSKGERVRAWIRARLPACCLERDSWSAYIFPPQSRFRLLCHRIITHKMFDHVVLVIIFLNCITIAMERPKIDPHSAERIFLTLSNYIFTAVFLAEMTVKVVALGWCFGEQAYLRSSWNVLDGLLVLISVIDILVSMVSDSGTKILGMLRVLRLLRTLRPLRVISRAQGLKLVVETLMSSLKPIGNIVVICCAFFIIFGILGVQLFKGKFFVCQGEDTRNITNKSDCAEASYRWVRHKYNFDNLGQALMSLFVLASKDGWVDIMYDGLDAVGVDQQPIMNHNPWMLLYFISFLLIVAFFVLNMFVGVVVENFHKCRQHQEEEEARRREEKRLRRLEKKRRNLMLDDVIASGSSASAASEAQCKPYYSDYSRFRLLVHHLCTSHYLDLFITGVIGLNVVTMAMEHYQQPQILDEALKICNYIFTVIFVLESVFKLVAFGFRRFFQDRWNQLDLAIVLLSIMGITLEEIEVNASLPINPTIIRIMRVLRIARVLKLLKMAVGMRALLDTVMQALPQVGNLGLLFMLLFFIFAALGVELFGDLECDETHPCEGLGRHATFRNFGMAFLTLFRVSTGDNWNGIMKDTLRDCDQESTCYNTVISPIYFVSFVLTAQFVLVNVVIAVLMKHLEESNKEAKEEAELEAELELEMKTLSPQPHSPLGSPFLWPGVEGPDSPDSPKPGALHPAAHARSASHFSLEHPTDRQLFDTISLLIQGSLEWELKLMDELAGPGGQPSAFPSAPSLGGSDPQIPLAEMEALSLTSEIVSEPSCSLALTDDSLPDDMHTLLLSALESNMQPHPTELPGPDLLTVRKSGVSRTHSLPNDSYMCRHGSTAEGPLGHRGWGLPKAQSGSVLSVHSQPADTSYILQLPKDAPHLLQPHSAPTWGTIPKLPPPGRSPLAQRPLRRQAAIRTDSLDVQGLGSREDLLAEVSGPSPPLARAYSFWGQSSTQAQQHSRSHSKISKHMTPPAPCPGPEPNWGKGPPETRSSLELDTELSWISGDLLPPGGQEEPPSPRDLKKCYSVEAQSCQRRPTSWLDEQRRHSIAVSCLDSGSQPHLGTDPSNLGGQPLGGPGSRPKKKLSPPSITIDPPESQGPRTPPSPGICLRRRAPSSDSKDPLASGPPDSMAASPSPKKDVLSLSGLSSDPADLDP

Usually pIC50 stands for the IC50 on a negative log10 scale, so that one unit is a factor of ten. For `C[C@@H]1CN(Cc2ccc(C(F)(F)F)o2)c2ccccc2[C@H](C)N1C(=O)Nc1cccnc1` (racemic), the microsomal CLint at 1 µM in series [1] is over 1250 µL/min/mg. Besides, the pIC50 in series [2] was 8.40; in series [3], 8.05; in series [4] it was 7.85.
With `Cc1ccc2c(n1)N(Cc1ccccc1)C[C@@H](C)N(C(=O)NCc1ccccc1)[C@H]2C` (racemic), the microsomal CLint at 1 µM in series [1] was 1240 µL/min/mg. For the same compound, the figures for the negative-log IC50 (pIC50) in series [2], in series [3] and in series [4] were 7.74, 7.48 and 7.55, respectively.
For `COc1ccc(CNC(=O)N2[C@H](C)CN(Cc3ccccc3)c3ccccc3[C@@H]2C)cc1` (racemic), in series [1], the microsomal CLint at 1 µM is over 1250 µL/min/mg. Further, the negative logarithm of the IC50 (pIC50) is 8.10 in series [2], 8.22 in series [3] and 7.85 in series [4].
Take `C[C@@H]1CN(Cc2ccccc2)c2cc(F)cc(F)c2[C@H](C)N1C(=O)Nc1cccnc1` (racemic): the microsomal CLint at 1 µM in series [1] came to 873 µL/min/mg. The negative logarithm of the IC50 (pIC50) in series [2] is 7.92; in series [3] it was 8.10; in series [4], 7.66.
For the compound `C[C@@H]1CN(Cc2ccccc2)c2cc(C#N)ccc2[C@H](C)N1C(=O)Nc1cccnc1` (racemic), the microsomal CLint at 1 µM in series [1] came out at 418 µL/min/mg. Moreover, the pIC50 was 6.24 in series [2], 6.51 in series [3] and 6.07 in series [4].
As for `[2H]C([2H])(c1ccccc1)N1C[C@@H](C)N(C(=O)Nc2cccnc2)[C@@H](C)c2ccccc21` (racemic), the microsomal CLint at 1 µM in series [1] was found to be 1110 µL/min/mg. Further, the negative-log IC50 (pIC50) in series [2] was 7.57; in series [3] it was 8.40; in series [4], 7.60.
For `C[C@@H]1CN(Cc2ccccc2)c2ncc(Cl)cc2[C@H](C)N1C(=O)NCc1ccccc1` (racemic) the same measures were 409 µL/min/mg, 7.11, 7.34 and 7.17.
With `C[C@@H]1CN(Cc2ccccc2)c2cccc(F)c2[C@H](C)N1C(=O)NC1COC1` (racemic), the microsomal CLint at 1 µM in series [1] worked out at 375 µL/min/mg. For the same compound, the pIC50 is 7.40 in series [2], 7.89 in series [3] and 7.23 in series [4].
Take `CCN1C[C@@H](C)N(C(=O)NCc2ccccc2)[C@@H](C)c2ccccc21` (racemic): in series [1], the microsomal CLint at 1 µM is over 1250 µL/min/mg. For the same compound, the figures for the pIC50 in series [2], in series [3] and in series [4] were 6.12, 6.86 and 6.04, respectively.
For `CC(C)CCN1C[C@@H](C)N(C(=O)Nc2cccnc2)[C@@H](C)c2ccccc21` (racemic), in series [1], the microsomal CLint at 1 µM is over 1250 µL/min/mg. In addition, the figures for the pIC50 in series [2], in series [3] and in series [4] were 7.64, 7.92 and 7.04, respectively.
Take `C[C@@H]1CN(Cc2ccccc2F)c2ccccc2[C@H](C)N1C(=O)Nc1cccnc1` (racemic): in series [1], the microsomal CLint at 1 µM worked out at 1200 µL/min/mg. The figures for the pIC50 in series [2], in series [3] and in series [4] were 8.40, 8.30 and 7.96, respectively.
As for `C[C@@H]1CN(Cc2ccccc2)c2ccccc2C(=O)N1CCc1ccccc1` (racemic), the microsomal CLint at 1 µM in series [1] is over 1250 µL/min/mg. For the same compound, the pIC50 in series [2] was 6.17; in series [3] it was 5.80; in series [4], 6.21.
`C[C@@H]1CN(Cc2ccccc2)c2nc(C(F)(F)F)ccc2[C@H](C)N1C(=O)NCc1ccccc1` (racemic): the microsomal CLint at 1 µM in series [1] was determined as 531 µL/min/mg. The pIC50 is 7.24 in series [2], 6.55 in series [3] and 6.98 in series [4].
Consider `C[C@@H]1CN(Cc2ccccc2)c2ncccc2[C@H](C)N1C(=O)NCc1ccccc1` (racemic), for which the microsomal CLint at 1 µM in series [1] was 1060 µL/min/mg. For the same compound, the pIC50 in series [2] is 7.82; in series [3], 8.10; in series [4], 7.51.
For the compound `C[C@@H]1CN(Cc2cccc(F)c2F)c2cnccc2[C@H](C)N1C(=O)NCc1ccccc1` (racemic), the microsomal CLint at 1 µM in series [1] was 212 µL/min/mg. Also, the negative logarithm of the IC50 (pIC50) in series [2] is 7.42; in series [3], 7.89; in series [4], 7.14.
As for `C[C@@H]1CN(Cc2ccccc2)c2cnc(Cl)cc2[C@H](C)N1C(=O)NCc1ccccc1` (racemic), the microsomal CLint at 1 µM in series [1] was over 1250 µL/min/mg. Further, the figures for the pIC50 in series [2], in series [3] and in series [4] were 6.66, 7.26 and 6.65, respectively.
For `C[C@@H]1CN(Cc2cnc(C(F)(F)F)s2)c2ccccc2[C@H](C)N1C(=O)CCc1cccnc1` (racemic) the same measures were 332 µL/min/mg, 7.40, 7.89 and 7.52.
Take `C[C@@H]1CN(Cc2ccccc2)c2ccccc2[C@H](C)N1C(=O)C1CCOCC1` (racemic): the microsomal CLint at 1 µM in series [1] came out at 1160 µL/min/mg. Moreover, the pIC50 in series [2] was 7.62; in series [3], 8.10; in series [4] it was 7.33.
The matching figures for `C[C@@H]1CN(CC2CCCC2)c2ccccc2[C@H](C)N1C(=O)Nc1cccnc1` (racemic): 1150 µL/min/mg, 7.64, 7.85 and 7.21.
With `C[C@@H]1CN(Cc2cnc(C(F)(F)F)s2)c2cccc(F)c2[C@H](C)N1C(=O)CCc1cccnc1` (racemic), the microsomal CLint at 1 µM in series [1] is 193 µL/min/mg. Further, the pIC50 in series [2] is 6.94; in series [3], 7.70; in series [4], 7.03.
In the case of `C[C@@H]1CN(Cc2ccccc2)c2ccccc2[C@H](C)N1C(=O)CN1CCOCC1` (racemic), in series [1], the microsomal CLint at 1 µM is over 1250 µL/min/mg. Besides, the figures for the pIC50 in series [2], in series [3] and in series [4] were 7.44, 8.15 and 7.29, respectively.
Take `COc1ccc2c(c1)[C@H](C)N(C(=O)Nc1cccnc1)[C@H](C)CN2Cc1ccccc1` (racemic): in series [1], the microsomal CLint at 1 µM was 521 µL/min/mg. Moreover, the pIC50 is 6.41 in series [2], 7.00 in series [3] and 6.28 in series [4].
The matching figures for `C[C@@H]1CNc2ccccc2[C@H](C)N1C(=O)NCc1ccccc1` (racemic): 59 µL/min/mg, under 5.00, under 5.07 and under 4.97.
For `C[C@@H]1CN(c2ccccc2)c2ccccc2[C@H](C)N1C(=O)NCc1ccccc1` (racemic), in series [1], the microsomal CLint at 1 µM was over 1250 µL/min/mg. Besides, the pIC50 is 6.59 in series [2], 6.65 in series [3] and 6.68 in series [4].
On to `C[C@@H]1CN(Cc2ccccc2)c2nc(F)ccc2[C@H](C)N1C(=O)NCc1ccccc1` (racemic), for which the microsomal CLint at 1 µM in series [1] is over 1250 µL/min/mg. The pIC50 in series [2] was 8.15; in series [3], 8.40; in series [4], 8.22.
The matching figures for `C[C@@H]1CN(Cc2cccc(C(F)(F)F)n2)c2ccccc2[C@H](C)N1C(=O)NCc1ccccc1` (racemic): over 1250 µL/min/mg, 7.60, 7.85 and 7.38.
As for `O=C(NCc1ccccc1)N1CCN(Cc2ccccc2)c2ccccc2C1`, the microsomal CLint at 1 µM in series [1] was over 1250 µL/min/mg. Also, the pIC50 in series [2] is 6.52; in series [3] it was 6.67; in series [4], 6.41.
Consider `C[C@@H]1C(=O)N(Cc2ccccc2)c2ccccc2[C@H](C)N1C(=O)NCc1ccccc1` (racemic), for which, in series [1], the microsomal CLint at 1 µM was over 1250 µL/min/mg. Further, the pIC50 in series [2] is 6.52; in series [3] it was 6.59; in series [4], 6.17.
For `COc1ccc2c(c1)N(Cc1ccccc1)C[C@@H](C)N(C(=O)Nc1cccnc1)[C@H]2C` (racemic), the microsomal CLint at 1 µM in series [1] stood at 649 µL/min/mg. Besides, the pIC50 was 6.20 in series [2], 6.21 in series [3] and 5.80 in series [4].
Take `C[C@@H]1CN(Cc2ccc(C(F)(F)F)o2)c2ccccc2[C@H](C)N1C(=O)NCc1ccccc1` (racemic): the microsomal CLint at 1 µM in series [1] is over 1250 µL/min/mg. Moreover, the pIC50 is 8.15 in series [2], 8.22 in series [3] and 7.89 in series [4].
For `C[C@@H]1CN(Cc2ccccc2)c2cncnc2[C@H](C)N1C(=O)NCc1ccccc1` (racemic), the figures for the pIC50 in series [2], in series [3] and in series [4] were under 5.07, 6.00 and under 5.19, respectively.
With `C[C@@H]1CN(Cc2ccccc2)c2ccccc2[C@H](C)N1S(=O)(=O)c1cn(C)cn1` (racemic), the negative-log IC50 (pIC50) in series [2] is 6.24; in series [3] it was 6.68; in series [4], 5.83.
For `C[C@@H]1CN(Cc2ccncc2)c2ccccc2[C@H](C)N1C(=O)NCc1ccccc1` (racemic) the same measures were under 5.14, 5.77 and under 5.07.
For `C[C@@H]1CN(Cc2ccccc2)c2ccccc2[C@H](C)N1C(=O)NCc1ccccc1` the same measures were 8.30, 8.70 and 7.77.
The matching figures for `C[C@@H]1CN(Cc2ccccc2)c2ccccc2[C@H](C)N1CC1CCOCC1` (racemic): 5.21, under 5.00 and 5.13.
In the case of `C[C@@H]1CN(Cc2ccccc2)c2c(cnn2C)[C@H](C)N1C(=O)NCc1ccccc1` (racemic), the pIC50 is under 5.03 in series [2], under 5.00 in series [3] and under 5.14 in series [4].
As to `C[C@@H]1CN(CCOC(C)(C)C)c2ccccc2[C@H](C)N1C(=O)NCc1ccccc1` (racemic), the pIC50 in series [2] is 7.46; in series [3] it was 7.92; in series [4] it was 7.36.
As to `C[C@@H]1CN(Cc2ccccc2)c2cccnc2[C@H](C)N1C(=O)NCc1ccccc1` (racemic), the pIC50 in series [2] was 6.22; in series [3], 7.04; in series [4], 6.67.
